Measurements published in PMC5218480 (PLoS ONE, 2017).

System: MV-4-11 cells
Test: Gene expression microarray analysis (Affymetrix PrimeView) and GSEA
Type: cell-based, human
Design: RFU PODN (11730768_x_at) / Fold change /veh PODN (11730768_x_at) / RFU LINC00158 (11744669_a_at) / Fold change /veh LINC00158 (11744669_a_at) / RFU DUSP10 (11751237_a_at) / Fold change /veh DUSP10 (11751237_a_at) / RFU ID3 (11757404_x_at) / Fold change /veh ID3 (11757404_x_at) / RFU PLEKHG5 (11737974_s_at) / Fold change /veh PLEKHG5 (11737974_s_at) / RFU LRRC4B (11730491_at) / Fold change /veh LRRC4B (11730491_at) / RFU GIMAP4 (11747438_a_at) / Fold change /veh GIMAP4 (11747438_a_at) / RFU KRT8 (11758183_x_at) / Fold change /veh KRT8 (11758183_x_at) / RFU CNN1 (11734310_a_at) / Fold change /veh CNN1 (11734310_a_at) / RFU VPS37D (11726825_at) / Fold change /veh VPS37D (11726825_at) / RFU C10orf10 (11716522_x_at) / Fold change /veh C10orf10 (11716522_x_at) / RFU KIR2DL2 /// KIR2DL4 /// KIR2DL5A /// KIR2DL5B /// KIR2DS1 /// KIR2DS2 /// KIR2DS3 /// KIR2DS4 /// KIR3DL3 /// KIR3DL3 /// KIR3DS1 (11738374_at) / Fold change /veh KIR2DL2 /// KIR2DL4 /// KIR2DL5A /// KIR2DL5B /// KIR2DS1 /// KIR2DS2 /// KIR2DS3 /// KIR2DS4 /// KIR3DL3 /// KIR3DL3 /// KIR3DS1 (11738374_at) / RFU C1QL1 (11718748_at) / Fold change /veh C1QL1 (11718748_at) / RFU TMPRSS4 (11747572_a_at) / Fold change /veh TMPRSS4 (11747572_a_at) / RFU HAMP (11756126_x_at) / Fold change /veh HAMP (11756126_x_at) / RFU RNFT2 (11725882_a_at) / Fold change /veh RNFT2 (11725882_a_at) / RFU NR4A2 (11747474_a_at) / Fold change /veh NR4A2 (11747474_a_at) / RFU ABCC12 (11746883_a_at) / Fold change /veh ABCC12 (11746883_a_at) / RFU TMEM136 (11760407_x_at) / Fold change /veh TMEM136 (11760407_x_at) / RFU CLDN22 /// WWC2 (11732394_at) / Fold change /veh CLDN22 /// WWC2 (11732394_at) / RFU HLA-DPB1 (11760878_x_at) / Fold change /veh HLA-DPB1 (11760878_x_at) / RFU SPINT1 (11716480_a_at) / Fold change /veh SPINT1 (11716480_a_at) / RFU GAP43 (11754022_s_at) / Fold change /veh GAP43 (11754022_s_at) / RFU A4GNT (11735810_at) / Fold change /veh A4GNT (11735810_at) / RFU PRB3 (11715151_x_at) / Fold change /veh PRB3 (11715151_x_at) / RFU TUBB4B (11761932_at) / Fold change /veh TUBB4B (11761932_at) / RFU CAPN14 (11732068_a_at) / Fold change /veh CAPN14 (11732068_a_at) / RFU TMCC2 (11721928_a_at) / Fold change /veh TMCC2 (11721928_a_at) / RFU IRGQ (11745062_a_at) / Fold change /veh IRGQ (11745062_a_at) / RFU FAM174B (11720279_a_at) / Fold change /veh FAM174B (11720279_a_at) / RFU TMPRSS4 (11748680_a_at) / Fold change /veh TMPRSS4 (11748680_a_at) / RFU FAM212B (11763350_a_at) / Fold change /veh FAM212B (11763350_a_at) / RFU PLEKHG5 (11743358_a_at) / Fold change /veh PLEKHG5 (11743358_a_at) / RFU ZSCAN30 (11745921_a_at) / Fold change /veh ZSCAN30 (11745921_a_at) / RFU CMKLR1 (11741424_a_at) / Fold change /veh CMKLR1 (11741424_a_at) / RFU LOC101060620 /// MAPK8IP1 (11723275_at) / Fold change /veh LOC101060620 /// MAPK8IP1 (11723275_at) / RFU SPTSSB (11747773_x_at) / Fold change /veh SPTSSB (11747773_x_at) / RFU PRSS12 (11739890_at) / Fold change /veh PRSS12 (11739890_at) / RFU BIN1 (11741810_x_at) / Fold change /veh BIN1 (11741810_x_at) / RFU WNT11 (11732464_a_at) / Fold change /veh WNT11 (11732464_a_at) / RFU C10orf10 (11716521_a_at) / Fold change /veh C10orf10 (11716521_a_at) / RFU C5orf56 (11738089_at) / Fold change /veh C5orf56 (11738089_at) / RFU CYB561 (11721691_x_at) / Fold change /veh CYB561 (11721691_x_at) / RFU ANKRD19P (11752326_a_at) / Fold change /veh ANKRD19P (11752326_a_at) / RFU OR2T12 /// OR2T33 /// OR2T8 (11738714_s_at) / Fold change /veh OR2T12 /// OR2T33 /// OR2T8 (11738714_s_at) / RFU VCAN (11748164_a_at) / Fold change /veh VCAN (11748164_a_at) / RFU JSRP1 (11732532_at) / Fold change /veh JSRP1 (11732532_at) / RFU KRTAP10-11 (11738290_x_at) / Fold change /veh KRTAP10-11 (11738290_x_at) / RFU MYO3A (11730013_a_at) / Fold change /veh MYO3A (11730013_a_at) / RFU EBF3 (11725865_a_at) / Fold change /veh EBF3 (11725865_a_at) / RFU CAMK2N1 (11719241_x_at) / Fold change /veh CAMK2N1 (11719241_x_at) / RFU C5orf56 (11738088_a_at) / Fold change /veh C5orf56 (11738088_a_at) / RFU OLFML3 (11715873_a_at) / Fold change /veh OLFML3 (11715873_a_at) / RFU LOC100653217 /// NTM (11731650_a_at) / Fold change /veh LOC100653217 /// NTM (11731650_a_at) / RFU MAPK11 (11762145_a_at) / Fold change /veh MAPK11 (11762145_a_at) / RFU FIZ1 (11724087_x_at) / Fold change /veh FIZ1 (11724087_x_at) / RFU OASL (11726364_x_at) / Fold change /veh OASL (11726364_x_at) / RFU SOX15 (11748057_x_at) / Fold change /veh SOX15 (11748057_x_at) / RFU CD79A (11719716_a_at) / Fold change /veh CD79A (11719716_a_at) / RFU HIST1H1D (11736915_at) / Fold change /veh HIST1H1D (11736915_at) / RFU CASKIN2 (11723855_a_at) / Fold change /veh CASKIN2 (11723855_a_at) / RFU LOC730098 (11760151_x_at) / Fold change /veh LOC730098 (11760151_x_at) / RFU OR4N2 (11742367_at) / Fold change /veh OR4N2 (11742367_at) / RFU PRRT2 (11749266_a_at) / Fold change /veh PRRT2 (11749266_a_at) / RFU SNX32 (11753110_a_at) / Fold change /veh SNX32 (11753110_a_at) / RFU CDHR5 (11726645_a_at) / Fold change /veh CDHR5 (11726645_a_at) / RFU RCAN1 (11760418_a_at) / Fold change /veh RCAN1 (11760418_a_at) / RFU FAM167A (11723789_a_at) / Fold change /veh FAM167A (11723789_a_at) / RFU FAM26E (11764081_at) / Fold change /veh FAM26E (11764081_at) / RFU ISYNA1 (11749810_s_at) / Fold change /veh ISYNA1 (11749810_s_at) / RFU ACY1 (11761880_at) / Fold change /veh ACY1 (11761880_at) / RFU 11764098_at / Fold change /veh 11764098_at / RFU SAMD14 (11745864_x_at) / Fold change /veh SAMD14 (11745864_x_at) / RFU NPB (11741838_a_at) / Fold change /veh NPB (11741838_a_at) / RFU TMPRSS6 (11731388_a_at) / Fold change /veh TMPRSS6 (11731388_a_at) / RFU KRTAP10-2 (11738614_at) / Fold change /veh KRTAP10-2 (11738614_at) / RFU ARHGAP8 /// PRR5-ARHGAP8 (11727945_x_at) / Fold change /veh ARHGAP8 /// PRR5-ARHGAP8 (11727945_x_at) / RFU KRTAP5-7 /// NADSYN1 (11734609_at) / Fold change /veh KRTAP5-7 /// NADSYN1 (11734609_at) / RFU RASL12 (11751679_a_at) / Fold change /veh RASL12 (11751679_a_at) / RFU CDKN2B (11736163_a_at) / Fold change /veh CDKN2B (11736163_a_at) / RFU PRF1 (11729649_at) / Fold change /veh PRF1 (11729649_at) / RFU, ZNF638 /// ZNF638-IT1 / Fold change vs veh, ZNF638 /// ZNF638-IT1 / RFU, PANK3 / Fold change vs veh, PANK3 / RFU, SH3YL1 / Fold change vs veh, SH3YL1 / RFU, ZEB2 / Fold change vs veh, ZEB2 / RFU, NRIP1 / Fold change vs veh, NRIP1 / RFU, PTTG1IP / Fold change vs veh, PTTG1IP / RFU, CAPN2 / Fold change vs veh, CAPN2 / RFU, MED14 / Fold change vs veh, MED14 / RFU, SNORA58 / Fold change vs veh, SNORA58 / RFU, C1orf63 / Fold change vs veh, C1orf63 / RFU, LRRFIP1 / Fold change vs veh, LRRFIP1 / RFU, NDUFAF7 / Fold change vs veh, NDUFAF7 / RFU, SLC12A2 / Fold change vs veh, SLC12A2 / RFU, IBTK / Fold change vs veh, IBTK / RFU, ESF1 / Fold change vs veh, ESF1 / Fold change vs veh, TMEM50B / RFU, TAOK1 / Fold change vs veh, TAOK1 / RFU, ACBD3 / Fold change vs veh, ACBD3 / RFU, TMA16 / Fold change vs veh, TMA16 / RFU, RWDD3 / Fold change vs veh, RWDD3 / RFU, BCAT1 / Fold change vs veh, BCAT1 / RFU, EDEM3 / Fold change vs veh, EDEM3 / RFU, TMEM33 / Fold change vs veh, TMEM33 / RFU, WDR75 / Fold change vs veh, WDR75 / RFU, AHCTF1 / Fold change vs veh, AHCTF1 / RFU, TFRC / Fold change vs veh, TFRC / RFU, ZDHHC17 / Fold change vs veh, ZDHHC17 / RFU, NOM1 / Fold change vs veh, NOM1 / RFU, ARL8B / Fold change vs veh, ARL8B / RFU, ZBTB11 / Fold change vs veh, ZBTB11 / RFU, TAMM41 / Fold change vs veh, TAMM41 / RFU, KIAA1704 /// LOC100996395 / Fold change vs veh, KIAA1704 /// LOC100996395 / RFU, ING1 / Fold change vs veh, ING1 / RFU, TRMT61B / Fold change vs veh, TRMT61B / RFU, FUBP3 / Fold change vs veh, FUBP3 / RFU, TP53 / Fold change vs veh, TP53 / RFU, TNKS2 / Fold change vs veh, TNKS2 / RFU, ZFP14 / Fold change vs veh, ZFP14 / RFU, ACTR2 / Fold change vs veh, ACTR2 / RFU, PPP3R1 / Fold change vs veh, PPP3R1 / RFU, PIK3R1 / Fold change vs veh, PIK3R1 / RFU, HNRNPA1 / Fold change vs veh, HNRNPA1 / RFU, RNF170 / Fold change vs veh, RNF170 / RFU, ZNF28 / Fold change vs veh, ZNF28 / RFU, RNGTT / Fold change vs veh, RNGTT / RFU, OGT / Fold change vs veh, OGT / RFU, BRD1 / Fold change vs veh, BRD1 / RFU, MARS / Fold change vs veh, MARS / RFU, ZNF655 / Fold change vs veh, ZNF655 / RFU, FAHD1 / Fold change vs veh, FAHD1 / RFU, BDP1 / Fold change vs veh, BDP1 / RFU, LRRCC1 / Fold change vs veh, LRRCC1 / RFU, ARID1A / Fold change vs veh, ARID1A / RFU, ZNF146 / Fold change vs veh, ZNF146 / RFU, ZNF330 / Fold change vs veh, ZNF330 / RFU, GPN3 / Fold change vs veh, GPN3 / RFU, C9orf123 / Fold change vs veh, C9orf123 / RFU, N4BP2L2 / Fold change vs veh, N4BP2L2 / RFU, ARFIP1 / Fold change vs veh, ARFIP1 / RFU, FAM179B / Fold change vs veh, FAM179B / RFU, BCL10 / Fold change vs veh, BCL10 / RFU, UHRF1BP1L / Fold change vs veh, UHRF1BP1L / RFU, BET1 / Fold change vs veh, BET1 / RFU, CNOT2 / Fold change vs veh, CNOT2 / RFU, ZNF268 / Fold change vs veh, ZNF268 / Fold change vs veh, ZNF507 / RFU, DGCR2 / Fold change vs veh, DGCR2 / RFU, WDSUB1 / Fold change vs veh, WDSUB1 / Fold change vs veh, HSP90B1 /// MIR3652 / RFU, ADSS / Fold change vs veh, ADSS / RFU, GK / Fold change vs veh, GK / RFU, ZNF148 / Fold change vs veh, ZNF148 / RFU, TAF9 / Fold change vs veh, TAF9 / RFU, SLC1A5 / Fold change vs veh, SLC1A5 / RFU, SLMO2 / Fold change vs veh, SLMO2 / RFU, ABCC4 / Fold change vs veh, ABCC4 / RFU, LOC101060439 /// RAP1B / Fold change vs veh, LOC101060439 /// RAP1B / RFU, RFX7 / Fold change vs veh, RFX7 / RFU, GTPBP10 / Fold change vs veh, GTPBP10 / RFU, CNEP1R1 / Fold change vs veh, CNEP1R1 / RFU, BIVM-ERCC5 /// ERCC5 / Fold change vs veh, BIVM-ERCC5 /// ERCC5 / RFU, ILF3 / Fold change vs veh, ILF3 / RFU 11762660_at / Fold change /veh 11762660_at / RFU VCAN (11757783_s_at) / Fold change /veh VCAN (11757783_s_at) / RFU DDX43 (11728927_at) / Fold change /veh DDX43 (11728927_at) / RFU KRT8 (11758188_x_at) / Fold change /veh KRT8 (11758188_x_at) / RFU NKD1 (11759106_at) / Fold change /veh NKD1 (11759106_at) / RFU SRD5A1 (11742802_a_at) / Fold change /veh SRD5A1 (11742802_a_at) / RFU TPSAB1 /// TPSB2 (11721975_s_at) / Fold change /veh TPSAB1 /// TPSB2 (11721975_s_at) / RFU GSTM3 (11746129_a_at) / Fold change /veh GSTM3 (11746129_a_at) / RFU IL23R (11737362_x_at) / Fold change /veh IL23R (11737362_x_at) / RFU TMEM51 (11727254_a_at) / Fold change /veh TMEM51 (11727254_a_at) / RFU PIWIL2 (11732686_x_at) / Fold change /veh PIWIL2 (11732686_x_at) / RFU ORM1 (11744905_x_at) / Fold change /veh ORM1 (11744905_x_at) / RFU CCDC152 (11743942_at) / Fold change /veh CCDC152 (11743942_at) / RFU ECM1 (11717891_a_at) / Fold change /veh ECM1 (11717891_a_at) / RFU IL23R (11748794_a_at) / Fold change /veh IL23R (11748794_a_at) / RFU TNFAIP8L3 (11732012_x_at) / Fold change /veh TNFAIP8L3 (11732012_x_at) / RFU MBOAT4 (11741988_at) / Fold change /veh MBOAT4 (11741988_at) / RFU 11764193_at / Fold change /veh 11764193_at / RFU TMEM53 (11763286_at) / Fold change /veh TMEM53 (11763286_at) / RFU MAGEB2 (11727129_at) / Fold change /veh MAGEB2 (11727129_at) / RFU TMEM200A (11744735_a_at) / Fold change /veh TMEM200A (11744735_a_at) / RFU CCDC152 (11751479_a_at) / Fold change /veh CCDC152 (11751479_a_at) / RFU FAM211A (11726209_a_at) / Fold change /veh FAM211A (11726209_a_at) / RFU RGS16 (11746705_a_at) / Fold change /veh RGS16 (11746705_a_at) / RFU VCAN (11755009_s_at) / Fold change /veh VCAN (11755009_s_at) / RFU RHOB (11743442_s_at) / Fold change /veh RHOB (11743442_s_at) / RFU RGS16 (11720943_a_at) / Fold change /veh RGS16 (11720943_a_at) / RFU RGS16 (11720944_at) / Fold change /veh RGS16 (11720944_at) / RFU, VPS4B / Fold change vs veh, VPS4B / RFU, CREB1 / Fold change vs veh, CREB1 / RFU, DNAJC13 / Fold change vs veh, DNAJC13 / RFU, GNAQ / Fold change vs veh, GNAQ / RFU, CDK5R1 / Fold change vs veh, CDK5R1 / RFU, ZRANB3 / Fold change vs veh, ZRANB3 / RFU, CUL4A / Fold change vs veh, CUL4A / RFU, CCNY / Fold change vs veh, CCNY / RFU, UFL1 / Fold change vs veh, UFL1 / RFU, COG3 / Fold change vs veh, COG3 / RFU, DIAPH2 / Fold change vs veh, DIAPH2 / RFU, SKA2 / Fold change vs veh, SKA2 / RFU, AFF3 / Fold change vs veh, AFF3 / RFU, LMF1 / Fold change vs veh, LMF1 / RFU, IPO11 / Fold change vs veh, IPO11 / RFU, DFFB / Fold change vs veh, DFFB / RFU, FOXP1 / Fold change vs veh, FOXP1 / RFU, CARD8 / Fold change vs veh, CARD8 / RFU, STRN3 / Fold change vs veh, STRN3 / RFU, ADK / Fold change vs veh, ADK / RFU, RASSF2 / Fold change vs veh, RASSF2 / RFU, WIPF1 / Fold change vs veh, WIPF1 / RFU, LARP1B / Fold change vs veh, LARP1B / RFU, RASA1 / Fold change vs veh, RASA1 / RFU, RB1 / Fold change vs veh, RB1 / RFU, PPFIA1 / Fold change vs veh, PPFIA1 / RFU, MAT2A / Fold change vs veh, MAT2A / RFU, CCT5 / Fold change vs veh, CCT5 / RFU, WDR92 / Fold change vs veh, WDR92 / RFU, CUX1 / Fold change vs veh, CUX1 / RFU, TTC7A / Fold change vs veh, TTC7A / RFU, TMEM135 / Fold change vs veh, TMEM135 / RFU, DEPTOR / Fold change vs veh, DEPTOR / RFU, CPM / Fold change vs veh, CPM / RFU, DNAJB6 / Fold change vs veh, DNAJB6 / RFU, CACNA2D3 / Fold change vs veh, CACNA2D3 / RFU, DTX4 / Fold change vs veh, DTX4 / RFU, TFCP2 / Fold change vs veh, TFCP2 / RFU, GMCL1 /// GMCL1P1 / Fold change vs veh, GMCL1 /// GMCL1P1 / RFU, AEBP2 / Fold change vs veh, AEBP2 / RFU, SNHG1 /// SNORD22 /// SNORD25 /// SNORD26 /// SNORD27 /// SNORD28 /// SNORD29 /// SNORD31 / Fold change vs veh, SNHG1 /// SNORD22 /// SNORD25 /// SNORD26 /// SNORD27 /// SNORD28 /// SNORD29 /// SNORD31 / Fold change (Aza/veh), C12orf56 (ProbeSet 11735607_a_at) / Fold change (ACY-1035/veh), C12orf56 (ProbeSet 11735607_a_at) / Fold change (Aza/veh), FGFR1OP (ProbeSet 11751329_s_at) / Fold change (ACY-1035/veh), FGFR1OP (ProbeSet 11751329_s_at) / Fold change (Aza/veh), VPS36 (ProbeSet 11739960_a_at) / Fold change (ACY-1035/veh), VPS36 (ProbeSet 11739960_a_at) / RFU SYPL1 (11715823_x_at) / Fold change /veh SYPL1 (11715823_x_at) / RFU IGFBP7 (11715501_s_at) / Fold change /veh IGFBP7 (11715501_s_at) / RFU REEP3 (11722064_at) / Fold change /veh REEP3 (11722064_at) / RFU IGLL1 (11728026_x_at) / Fold change /veh IGLL1 (11728026_x_at): dose or concentration left out as unconfirmed
Conditions: ProbeSet 11748335_a_at; LIST B

## Nc1ccc(-c2cccs2)cc1NC(=O)c1ccc2c(c1)cc(C1CC1)n2CCN1CCOCC1 [ACY-1035]
  Fold change vs veh, SLMO2: 0.88
